Source: patent publication US10195313B2, “Method for forming hydrogel arrays using surfaces with differential wettability” (Wisconsin Alumni Research Foundation, priority 2014, dated 2019)
Non-standard residues stand in square brackets, D forms with d. No end group written: not given here.

Test system: endothelial cells (HUVECs, iPSC-ECs, hESC-ECs)
Experiment: endothelial cell tubule network formation (tubulogenesis) on patterned hydrogel array spots
Assay type: cell-based, human
Settings: 0.067 mM to 0.267 of peptide incorporated into hydrogel arrays
Procedure: In this Example, a patterned hydrogel array was used to investigate endothelial cell tubule network formation (termed “tubulogenesis”) in vitro.
Specifically, patterned hydrogel arrays were composed of 8-arm, 20 kDa polyethylene glycol) functionalized with norbenene. As illustrated in the schematic shown in FIG. 13A, the patterned hydrogel arrays included hydrogel spots contained from 30 mg/mL to 60 mg/mL PEG, from 30-70% crosslinking with an MMP-degradable crosslinking peptide (KCGGPQGIWGQGCK, SEQ ID NO:35 or KCGGPQGIAGQGCK, SEQ ID NO:36) and 0.25 mM to 2 mM of a cell adhesive peptide (CRGDS, SEQ ID NO:2). Patterned hydrogel array spots were seeded with human umbilical vein endothelial cells (HUVECs), human induced pluripotent stem cell-derived endothelial cells (iPSC-ECs), and human embryonic stem cell-derived endothelial cells (hESC-ECs) in culture media containing standard growth medium for each cell type (Medium 199 and EGM-2 BULLETKIT™ (Lonza, Basel, Switzerland) for HUVECs, VASCULIFE® and VEGF LifeFactors for iPSC-ECs and hESC-ECs (Lifeline Cell Technology, Frederick, Md.)).
The hydrogel spots that contained between 36 mg/mL to 60 mg/mL PEG, 30-70% crosslinking with an MMP-degradable crosslinking peptide and 0.25 mM to 2 mM of the cell adhesive peptide supported of EC tubule formation (FIG. 13C). […]

## CKDAPYEWNFDILdYdAdFdE (CKDAPYEWNFDIL[dY][dA][dF][dE]; not fully specified (residue 13))
  persistence of tubule networks: enhanced
